Converted amounts (≈) assume the structure as drawn.
How the values were obtained:
Type in all cases: functional
Saccharomyces cerevisiae [1] = assay: Growth inhibition of wild type Saccharomyces cerevisiae BY47411 at 5 mM after 48 hrs relative to control
Saccharomyces cerevisiae [2] = assay: Antifungal activity against wild type Saccharomyces cerevisiae BY47411 after 24 hrs
Saccharomyces cerevisiae [3] = assay: Growth inhibition of wild type Saccharomyces cerevisiae BY47411 at 6.4 mM after 48 hrs relative to control
Saccharomyces cerevisiae [4] = assay: Growth inhibition of wild type Saccharomyces cerevisiae BY47411 at 0.8 mM after 48 hrs relative to control
Saccharomyces cerevisiae [5] = assay: Growth inhibition of wild type Saccharomyces cerevisiae BY47411 at 1.6 mM after 48 hrs relative to control
Saccharomyces cerevisiae [6] = assay: Growth inhibition of wild type Saccharomyces cerevisiae BY47411 at 3.2 mM after 48 hrs relative to control
Saccharomyces cerevisiae [7] = assay: Antifungal activity against wild type Saccharomyces cerevisiae BY47411 assessed as cell number at 0.8 mM after 48 hrs
Saccharomyces cerevisiae [8] = assay: Antifungal activity against wild type Saccharomyces cerevisiae BY47411 assessed as cell number at 1.6 mM after 48 hrs
Saccharomyces cerevisiae [9] = assay: Antifungal activity against wild type Saccharomyces cerevisiae BY47411 assessed as cell number at 3.2 mM after 48 hrs
Saccharomyces cerevisiae [10] = assay: Antifungal activity against wild type Saccharomyces cerevisiae BY47411 assessed as cell number at 6.4 mM after 48 hrs
Saccharomyces cerevisiae [11] = assay: (§1) Growth inhibition of Saccharomyces cerevisiae bck1delta deletion mutant at 3.2 mM relative to control after 48 hrs
Saccharomyces cerevisiae [12] = assay: as §1; remark: listed apart in the source
Aspergillus fumigatus [13] = assay: Antifungal activity against Aspergillus fumigatus AF293
Aspergillus flavus [14] = assay: Antifungal activity against Aspergillus flavus NRRL3357
Aspergillus fumigatus [15] = assay: Growth inhibition of wild type Aspergillus fumigatus AF293 at 0.1 mM after 4 days; settings: AF293, 96 h
Aspergillus fumigatus [16] = assay: Growth inhibition of wild type Aspergillus fumigatus AF293 at 0.2 mM after 4 days; settings: AF293, 96 h
Aspergillus fumigatus [17] = assay: Growth inhibition of wild type Aspergillus fumigatus AF293 at 0.4 mM after 4 days; settings: AF293, 96 h
Aspergillus fumigatus [18] = assay: Fungicidal activity against wild type Aspergillus fumigatus AF293 assessed as radial growth on potato dextrose agar plate at 0.1 mM after 4 days
Saccharomyces cerevisiae [19] = assay: Antifungal activity against Saccharomyces cerevisiae bck1delta deletion mutant assessed as cell number at 1.6 mM after 48 hrs
Saccharomyces cerevisiae [20] = assay: Antifungal activity against Saccharomyces cerevisiae bck1delta deletion mutant assessed as cell number at 3.2 mM after 48 hrs
Aspergillus fumigatus [21] = assay: Growth inhibition of wild type Aspergillus fumigatus AF293 at 0.8 mM after 4 days; settings: AF293, 96 h
Aspergillus fumigatus [22] = assay: Growth inhibition of wild type Aspergillus fumigatus AF293 at 1.6 mM after 4 days; settings: AF293, 96 h
Aspergillus fumigatus [23] = assay: Growth inhibition of wild type Aspergillus fumigatus AF293 at 3.2 mM after 4 days; settings: AF293, 96 h
Aspergillus fumigatus [24] = assay: Growth inhibition of wild type Aspergillus fumigatus AF293 at 6.4 mM after 4 days; settings: AF293, 96 h
Aspergillus fumigatus [25] = assay: Fungicidal activity against wild type Aspergillus fumigatus AF293 assessed as radial growth on potato dextrose agar plate at 0.2 mM after 4 days
Aspergillus fumigatus [26] = assay: Fungicidal activity against wild type Aspergillus fumigatus AF293 assessed as radial growth on potato dextrose agar plate at 0.4 mM after 4 days
Aspergillus fumigatus [27] = assay: Fungicidal activity against wild type Aspergillus fumigatus AF293 assessed as radial growth on potato dextrose agar plate at 0.8 mM after 4 days
Aspergillus fumigatus [28] = assay: Fungicidal activity against wild type Aspergillus fumigatus AF293 assessed as radial growth on potato dextrose agar plate at 1.6 mM after 4 days
Aspergillus fumigatus [29] = assay: Fungicidal activity against wild type Aspergillus fumigatus AF293 assessed as radial growth on potato dextrose agar plate at 3.2 mM after 4 days
Aspergillus fumigatus [30] = assay: Fungicidal activity against wild type Aspergillus fumigatus AF293 assessed as radial growth on potato dextrose agar plate at 6.4 mM after 4 days
Aspergillus flavus [31] = assay: Growth inhibition of wild type Aspergillus flavus NRRL3357 at 0.1 mM after 4 days; settings: NRRL3357, 96 h
Aspergillus flavus [32] = assay: Growth inhibition of wild type Aspergillus flavus NRRL3357 at 0.2 mM after 4 days; settings: NRRL3357, 96 h
Aspergillus flavus [33] = assay: Growth inhibition of wild type Aspergillus flavus NRRL3357 at 0.4 mM after 4 days; settings: NRRL3357, 96 h
Aspergillus flavus [34] = assay: Growth inhibition of wild type Aspergillus flavus NRRL3357 at 0.8 mM after 4 days; settings: NRRL3357, 96 h
Aspergillus flavus [35] = assay: Growth inhibition of wild type Aspergillus flavus NRRL3357 at 1.6 mM after 4 days; settings: NRRL3357, 96 h
Aspergillus flavus [36] = assay: Growth inhibition of wild type Aspergillus flavus NRRL3357 at 3.2 mM after 4 days; settings: NRRL3357, 96 h
Aspergillus flavus [37] = assay: Growth inhibition of wild type Aspergillus flavus NRRL3357 at 6.4 mM after 4 days; settings: NRRL3357, 96 h
Aspergillus flavus [38] = assay: Fungicidal activity against wild type Aspergillus flavus NRRL3357 assessed as radial growth on potato dextrose agar plate at 0.1 mM after 4 days
Aspergillus flavus [39] = assay: Fungicidal activity against wild type Aspergillus flavus NRRL3357 assessed as radial growth on potato dextrose agar plate at 0.2 mM after 4 days
Aspergillus flavus [40] = assay: Fungicidal activity against wild type Aspergillus flavus NRRL3357 assessed as radial growth on potato dextrose agar plate at 0.4 mM after 4 days
Aspergillus flavus [41] = assay: Fungicidal activity against wild type Aspergillus flavus NRRL3357 assessed as radial growth on potato dextrose agar plate at 0.8 mM after 4 days
Aspergillus flavus [42] = assay: Fungicidal activity against wild type Aspergillus flavus NRRL3357 assessed as radial growth on potato dextrose agar plate at 1.6 mM after 4 days
Aspergillus flavus [43] = assay: Fungicidal activity against wild type Aspergillus flavus NRRL3357 assessed as radial growth on potato dextrose agar plate at 3.2 mM after 4 days
Aspergillus flavus [44] = assay: Fungicidal activity against wild type Aspergillus flavus NRRL3357 assessed as radial growth on potato dextrose agar plate at 6.4 mM after 4 days

Q: With CCCCCCCCCCOC(=O)CCc1ccc(O)c(OC)c1 [DIHYDROFERULIC ACID DECYL ESTER] as the molecule, how does the inhibition at 5000 µM (Saccharomyces cerevisiae [1]) read?
A: 2.8%

Q: How did the MIC50 (Saccharomyces cerevisiae [2]) turn out when CCOC(=O)CCc1ccc(O)c(OC)c1 [DIHYDROFERULIC ACID ETHYL ESTER] was run?
A: 4 mM (≈ 897 µg/mL)

Q: What about the MIC90 (Saccharomyces cerevisiae [2]) of the same molecule?
A: > 6.4 mM

Q: And the inhibition at 5000 µM (Saccharomyces cerevisiae [1])?
A: 98.7%

Q: And the inhibition at 6400 µM (Saccharomyces cerevisiae [3])?
A: 87%

Q: What does the source list for COC(=O)CCc1ccc(O)c(OC)c1 [DIHYDROFERULIC ACID METHYL ESTER]?
A: MIC50 (Saccharomyces cerevisiae [2]): 2.1 mM (≈ 441 µg/mL); MIC90 (Saccharomyces cerevisiae [2]): 5.6 mM (≈ 1180 µg/mL); inhibition at 5000 µM (Saccharomyces cerevisiae [1]): 100%

Q: Which inhibition at 5000 µM (Saccharomyces cerevisiae [1]) does the source give for CCCCCCCCOC(=O)CCc1ccc(O)c(OC)c1 [DIHYDROFERULIC ACID OCTYL ESTER] here?
A: 6.2%

Q: CCCOC(=O)CCc1ccc(O)c(OC)c1 [DIHYDROFERULIC ACID PROPYL ESTER] was tested. Which MIC50 (Saccharomyces cerevisiae [2]) did it give?
A: 1.5 mM (≈ 357 µg/mL)

Q: What about the MIC90 (Saccharomyces cerevisiae [2]) of the same molecule?
A: 4.5 mM (≈ 1070 µg/mL)

Q: And the inhibition at 5000 µM (Saccharomyces cerevisiae [1])?
A: 99.4%

Q: And the inhibition at 800 µM (Saccharomyces cerevisiae [4])?
A: 32.7%

Q: And the inhibition at 1600 µM (Saccharomyces cerevisiae [5])?
A: 57.4%

Q: And the inhibition at 3200 µM (Saccharomyces cerevisiae [6])?
A: 99.3%

Q: What about the inhibition at 6400 µM (Saccharomyces cerevisiae [3]) of the same molecule?
A: 100%

Q: And the Activity (Saccharomyces cerevisiae [7])?
A: 2.99

Q: And the Activity (Saccharomyces cerevisiae [8])?
A: 1.89

Q: What about the Activity (Saccharomyces cerevisiae [9]) of the same molecule?
A: 0.03

Q: And the Activity (Saccharomyces cerevisiae [10])?
A: 0

Q: And the inhibition at 3200 µM (Saccharomyces cerevisiae [11])?
A: 76.8%

Q: And the inhibition at 3200 µM (Saccharomyces cerevisiae [12])?
A: 93%

Q: And the MIC50 (Aspergillus fumigatus [13])?
A: 2100 µM (≈ 500 µg/mL)

Q: What about the MIC50 (Aspergillus flavus [14]) of the same molecule?
A: 2900 µM (≈ 691 µg/mL)

Q: And the inhibition at 100 µM (Aspergillus fumigatus [15])?
A: 0%

Q: And the inhibition at 200 µM (Aspergillus fumigatus [16])?
A: 2.2%

Q: And the inhibition at 400 µM (Aspergillus fumigatus [17])?
A: 10.7%

Q: And the Activity (Aspergillus fumigatus [18])?
A: 4.7 cm

Q: And the Activity (Saccharomyces cerevisiae [19])?
A: 1.07

Q: What about the Activity (Saccharomyces cerevisiae [20]) of the same molecule?
A: 0.32

Q: And the inhibition at 800 µM (Aspergillus fumigatus [21])?
A: 17.1%

Q: And the inhibition at 1600 µM (Aspergillus fumigatus [22])?
A: 42.6%

Q: And the inhibition at 3200 µM (Aspergillus fumigatus [23])?
A: 78.8%

Q: What about the inhibition at 6400 µM (Aspergillus fumigatus [24]) of the same molecule?
A: 100%

Q: What about the Activity (Aspergillus fumigatus [25]) of the same molecule?
A: 4.6 cm

Q: And the Activity (Aspergillus fumigatus [26])?
A: 4.2 cm

Q: What about the Activity (Aspergillus fumigatus [27]) of the same molecule?
A: 3.9 cm

Q: What about the Activity (Aspergillus fumigatus [28]) of the same molecule?
A: 2.7 cm

Q: What about the Activity (Aspergillus fumigatus [29]) of the same molecule?
A: 1 cm

Q: And the Activity (Aspergillus fumigatus [30])?
A: 0 cm

Q: And the inhibition at 100 µM (Aspergillus flavus [31])?
A: 0%

Q: And the inhibition at 200 µM (Aspergillus flavus [32])?
A: 3.2%

Q: And the inhibition at 400 µM (Aspergillus flavus [33])?
A: 6.3%

Q: What about the inhibition at 800 µM (Aspergillus flavus [34]) of the same molecule?
A: 12.5%

Q: And the inhibition at 1600 µM (Aspergillus flavus [35])?
A: 28.2%

Q: And the inhibition at 3200 µM (Aspergillus flavus [36])?
A: 53.2%

Q: And the inhibition at 6400 µM (Aspergillus flavus [37])?
A: 100%

Q: And the Activity (Aspergillus flavus [38])?
A: 3.2 cm

Q: And the Activity (Aspergillus flavus [39])?
A: 3.1 cm

Q: And the Activity (Aspergillus flavus [40])?
A: 3 cm

Q: And the Activity (Aspergillus flavus [41])?
A: 2.8 cm

Q: What about the Activity (Aspergillus flavus [42]) of the same molecule?
A: 2.3 cm

Q: And the Activity (Aspergillus flavus [43])?
A: 1.5 cm

Q: What about the Activity (Aspergillus flavus [44]) of the same molecule?
A: 0 cm

Q: Which MIC50 (Saccharomyces cerevisiae [2]) does the source give for COc1cc(CCC(=O)O)ccc1O [DIHYDROFERULIC ACID] here?
A: 6.4 mM (≈ 1260 µg/mL)

Q: What about the inhibition at 5000 µM (Saccharomyces cerevisiae [1]) of the same molecule?
A: 6.4%

Q: For CCCCCCOC(=O)CCc1ccc(O)c(OC)c1 [HEXYLHYDROFERULATE], which inhibition at 5000 µM (Saccharomyces cerevisiae [1]) is on record?
A: 18.8%

Q: What about the inhibition at 800 µM (Saccharomyces cerevisiae [4]) of the same molecule?
A: 18.7%

Q: And the inhibition at 1600 µM (Saccharomyces cerevisiae [5])?
A: 38.3%

Q: What about the inhibition at 3200 µM (Saccharomyces cerevisiae [6]) of the same molecule?
A: 77.5%

Q: What about the inhibition at 6400 µM (Saccharomyces cerevisiae [3]) of the same molecule?
A: 93.7%

Q: And the Activity (Saccharomyces cerevisiae [7])?
A: 3.61

Q: And the Activity (Saccharomyces cerevisiae [8])?
A: 2.74

Q: What about the Activity (Saccharomyces cerevisiae [9]) of the same molecule?
A: 1

Q: And the Activity (Saccharomyces cerevisiae [10])?
A: 0.28

From ChEMBL document CHEMBL1139888, “Fungicidal activities of dihydroferulic acid alkyl ester analogues” (2007)
